The values that follow come from publication PMC9250534, “Synthesis and direct assay of large macrocycle diversities by combinatorial late-stage modification at picomole scale” (Nature Communications, 2022).

For this assay, the target named is T1, thrombin (Homo sapiens, UniProt P00734).
T1 construct: consists of two polypeptide chains of 36 (light chain) and 259 amino acid
Nature of the assay: Thrombin inhibition screen of crude macrocycle reactions (residual thrombin activity, fluorogenic substrate Z-Gly-Gly-Arg-AMC). The conditions noted are these: 10 µM macrocycle concentration; for percent residual thrombin activity: crude reactions, Library 1a-l, scaffold AA1-AA2-AA3 combined with 1-16 or '-'; for % thrombin activity, Original screen / % thrombin activity, Repeat screen: macrocycles containing acid 14, crude reaction; for % thrombin activity, Repeat screen: replicate reaction and screen. In kind it is biochemical. How it is done:
As a proof-of-concept, we screened the macrocycle library for inhibitors against thrombin, which is the central blood coagulation protease and an important therapeutic target. We conducted the screen for thrombin-inhibiting macrocycles in 384-well reaction plates. Briefly, each well contained a unique macrocycle (10 μM), 5 μL of thrombin (2 nM final conc.), and subsequently, 5 µL of a fluorogenic substrate to measure the residual thrombin activity and the extent of protease inhibition.
The assays were performed in 384-well plates using Tris buffer at pH 7.4 (100 mM Tris-Cl, 150 mM NaCl, 10 mM MgCl2, 1 mM CaCl2, 0.1% w/v BSA, 0.01% v/v Triton-X100, and 0.6% v/v DMSO) using thrombin at a final concentration of 2 nM and the fluorogenic substrate Z-Gly-Gly-Arg-AMC at a final concentration of 50 μM. Thrombin (5 μL, 6 nM) in the Tris-Cl buffer described above was added to each peptide using a BioTek MultiFlo microplate dispenser, and incubated for 10 min at room temperature. […] Data was collected and exported using the Tecan Infinite M200 Pro instrument software. […] For the negative controls (20 wells containing DMSO but no macrocycle), an average slope was calculated. The percent of thrombin inhibition was calculated by dividing the slopes and multiplying the results by 100.

Numbered stars: 1 amine (or outer) side, 2 acyl side, 3 side chain; on linkers, the order of the positions; unused ones are H or OH. Bridge positions count the residues as written; N and C are the ends. Square brackets hold non-standard residues; d marks the D form. Peptide text beside a SMILES is read from it. * marks the point of attachment. Pyrazinoyl(5-oxo-4H) = O=C(c1c[nH]c(=O)cn1)*; 1,2,3Thiadiazole5CO(4-Me) = Cc1nnsc1C(=O)*; 2Thenoyl(5-Cl) = O=C(c1ccc(Cl)s1)*; Phenoxyacetyl = O=C(COc1ccccc1)*; Cysteamide = C(CS[*:3])N[*:1]; X3 = O=C(Cc1c[nH]c2ccccc12)*; Isovaleryl = CC(C)CC(=O)*; Orn = NCCC[CH](N)C(=O)O; Api = NC1(C(=O)O)CCNCC1; Bz = O=C(c1ccccc1)*; βAla = NCCC(=O)O; Mpa = O=C(O)CCS

With `O=C1CCSSCCNC(=O)[C@H]2CCCN(C2)C(=O)[C@H](CCCCNC(=O)c2c[nH]c(=O)cn2)NC(=O)[C@H](Cc2ccc(O)cc2)N1` [Y-D1-B4/9], the “percent residual thrombin activity” value is given as 103.469%.

`CC(C)C[C@@H]1NC(=O)CCNC(=O)CCSSCCNC(=O)[C@H](CCCN)NC1=O` [B2-L-D2/-] ([Mpa][βAla]L[Orn]-Cysteamide; disulfide 1-C): the “percent residual thrombin activity” value is reported as 113.32%.

Take `CC(C)[C@@H]1NC(=O)CCSSCCNC(=O)[C@@H]2CCCN2C(=O)[C@H](CCCCNC(=O)c2ccc(Cl)s2)NC1=O` [v-D1-B1/14] ([Mpa]VK(2Thenoyl(5-Cl))P-Cysteamide; disulfide 1-C): the “percent residual thrombin activity” value worked out at 97.5215%.

On to `NCCCC[C@@H]1NC(=O)[C@@H](CO)NC(=O)[C@@H]2CCCN2C(=O)CCSSCCNC1=O` [B1-s-D1/-] ([Mpa]P[dS]K-Cysteamide; disulfide 1-C), for which the “percent residual thrombin activity” value is 113.487%.

Regarding `COc1ccc(C(=O)NCCCC[C@@H]2NC(=O)[C@H](CO)NC(=O)c3cccc(c3)CNC(=O)CCSSCCNC2=O)cn1` [B5-S-D1/10], the “percent residual thrombin activity” value was 101.444%.

On to `Cc1nnsc1C(=O)NCCCC[C@@H]1NC(=O)CCSSCCNC(=O)[C@@H](Cc2ccc(O)cc2)NC(=O)[C@H]2CCCN(C2)C1=O` [D1-B4-y/15], for which the “percent residual thrombin activity” value worked out at 108.72%.

For `Cc1nnsc1C(=O)NCCC[C@@H]1NC(=O)CCSSCCNC(=O)c2ccc(cc2)CNC(=O)[C@H](Cc2c[nH]c3ccccc23)NC1=O` [D2-W-B3/15], the “percent residual thrombin activity” value amounted to 116.257%.

For `C[C@H]1NC(=O)[C@H](CCCNC(=O)c2ccccc2)NC(=O)CCSSCCNC(=O)CCNC1=O` [D2-a-B2/1] ([Mpa][Orn](Bz)[dA][βAla]-Cysteamide; disulfide 1-C), the “percent residual thrombin activity” value amounted to 113.72%.

For the compound `O=C1CCSSCCNC(=O)c2ccc(cc2)CNC(=O)[C@H](Cc2c[nH]c3ccccc23)NC(=O)[C@H](CNC(=O)c2ccc(Cl)s2)N1` [X D3 W B3], the “% thrombin activity, Original screen” value is given as 101.5% and the “% thrombin activity, Repeat screen” value is on record as 109.4%.

Take `CC(C)CC(=O)NCCC[C@@H]1NC(=O)[C@H](CO)NC(=O)[C@@H]2CCCN2C(=O)CCSSCCNC1=O` [B1-S-D2/8] ([Mpa]PS[Orn](Isovaleryl)-Cysteamide; disulfide 1-C): the “percent residual thrombin activity” value was found to be 106.543%.

Regarding `O=C1CCNC(=O)[C@@H](CO)NC(=O)CCSSCCNC(=O)[C@H](CCCCNC(=O)c2cnccn2)N1` [s-B2-D1/2], the “percent residual thrombin activity” value came out at 113.66%.

Turning to `CC1NC(=O)C(CNC(=O)c2ccc(Cl)s2)NC(=O)CCSSCCNC(=O)c2cccc(c2)CNC1=O` (stereo not drawn) [X D4 a B5], the “% thrombin activity, Original screen” value stood at 103.5% and the “% thrombin activity, Repeat screen” value was determined as 106.9%.

Take `CC(C)[C@@H]1NC(=O)CCSSCCNC(=O)[C@@H]2CCCN2C(=O)[C@H](CCCCNC(=O)Cc2c[nH]c3ccccc23)NC1=O` [v-D1-B1/12] ([Mpa]VK(X3)P-Cysteamide; disulfide 1-C): the “percent residual thrombin activity” value came to 99.643%.

Consider `CC(C)[C@H]1NC(=O)[C@H](CCCCNC(=O)c2ccccc2)NC(=O)[C@@H]2CCCN2C(=O)CCSSCCNC1=O` [B1-D1-v/1] ([Mpa]PK(Bz)[dV]-Cysteamide; disulfide 1-C), for which the “percent residual thrombin activity” value was determined as 107.218%.

As to `O=C1CCSSCCNC(=O)[C@@H](Cc2ccc(O)cc2)NC(=O)[C@H]2CCCN(C2)C(=O)[C@H](CCCCNC(=O)c2ccc(Cl)s2)N1` [X D1 B4 y], the “% thrombin activity, Original screen” value turned out to be 99.9% and the “% thrombin activity, Repeat screen” value turned out to be 100.1%.

For the compound `CC(C)CC1NC(=O)C2CC(NC(=O)c3ccc(Cl)s3)CN2C(=O)CCSSCCNC(=O)c2ccc(cc2)CNC1=O` (stereo not drawn) [X D5 L B3], the “% thrombin activity, Original screen” value came to 110.6% and the “% thrombin activity, Repeat screen” value is given as 115.5%.

Turning to `NC(=O)CC[C@@H]1NC(=O)C2(CCN(C(=O)c3ccc(Cl)s3)CC2)NC(=O)c2cccc(c2)CNC(=O)CCSSCCNC1=O` [X B5 D6 Q], the “% thrombin activity, Original screen” value was determined as 54.9% and the “% thrombin activity, Repeat screen” value turned out to be 55.7%.

`O=C1CCSSCCNC(=O)[C@H]2CCCN(C2)C(=O)[C@H](CCCCNC(=O)c2c[nH]c(=O)[nH]c2=O)NC(=O)[C@H](Cc2ccc(O)cc2)N1` [Y-D1-B4/11]: the “percent residual thrombin activity” value stood at 107.832%.

Consider `C[C@H]1NC(=O)CCSSCCNC(=O)c2ccc(cc2)CNC(=O)[C@@H]2C[C@H](NC(=O)c3ccc(Cl)s3)CN2C1=O` [X a D5 B3], for which the “% thrombin activity, Original screen” value worked out at 110.0% and the “% thrombin activity, Repeat screen” value is recorded as 116.2%.

For the compound `COc1ccc(C(=O)NCCCC[C@@H]2NC(=O)[C@H](C(C)C)NC(=O)c3ccc(cc3)CNC(=O)CCSSCCNC2=O)cn1` [B3-V-D1/10], the “percent residual thrombin activity” value was found to be 106.658%.

`CC(C)C1NC(=O)CCSSCCNC(=O)C(CNC(=O)c2ccc(Cl)s2)NC(=O)C2CCCN(C2)C1=O` (stereo not drawn) [X V B4 D3]: the “% thrombin activity, Original screen” value was determined as 75.0% and the “% thrombin activity, Repeat screen” value came to 73.4%.

As for `O=C1CCSSCCNC(=O)[C@H](CNC(=O)c2ccc(Cl)s2)NC(=O)[C@H](Cc2ccc(O)cc2)NC(=O)C2(CC2)CN1` [X B6 Y D3], the “% thrombin activity, Original screen” value was found to be 68.6% and the “% thrombin activity, Repeat screen” value is 63.8%.

Turning to `O=C1CCSSCCNC(=O)C(Cc2ccccc2)NC(=O)C(CNC(=O)c2ccc(Cl)s2)NC(=O)c2ccc(cc2)CN1` (stereo not drawn) [X B3 D3 f], the “% thrombin activity, Original screen” value came out at 91.1% and the “% thrombin activity, Repeat screen” value was 96.6%.

As to `O=C(COc1ccccc1)NCCCC[C@@H]1NC(=O)[C@@H](Cc2c[nH]c3ccccc23)NC(=O)[C@H]2CCCN(C2)C(=O)CCSSCCNC1=O` [B4-w-D1/13], the “percent residual thrombin activity” value was found to be 115.4%.

For `O=C(NCCCC[C@@H]1NC(=O)[C@@H]2CCCN2C(=O)CCSSCCNC(=O)[C@@H](Cc2ccc(O)cc2)NC1=O)c1ccccc1` [B1-D1-y/1] ([Mpa]PK(Bz)[dY]-Cysteamide; disulfide 1-C), the “percent residual thrombin activity” value is recorded as 105.697%.

As to `NC(=O)CC[C@@H]1NC(=O)[C@H](CCCCNC(=O)COc2ccccc2)NC(=O)CCSSCCNC(=O)[C@@H]2CCCN2C1=O` [D1-Q-B1/13] ([Mpa]K(Phenoxyacetyl)QP-Cysteamide; disulfide 1-C), the “percent residual thrombin activity” value came to 104.037%.

With `O=C1CCSSCCNC(=O)C(Cc2c[nH]c3ccccc23)NC(=O)C2CC(NC(=O)c3ccc(Cl)s3)CN2C(=O)c2cccc(c2)CN1` (stereo not drawn) [X B5 D5 w], the “% thrombin activity, Original screen” value is recorded as 112.0% and the “% thrombin activity, Repeat screen” value came to 122.3%.

Consider `Cc1nnsc1C(=O)NCCCC[C@@H]1NC(=O)[C@H](C(C)C)NC(=O)CCSSCCNC(=O)[C@@H]2CCCN2C1=O` [V-D1-B1/15] ([Mpa]VK(1,2,3Thiadiazole5CO(4-Me))P-Cysteamide; disulfide 1-C), for which the “percent residual thrombin activity” value worked out at 114.617%.

Regarding `CC(C)C1NC(=O)C2(CCN(C(=O)c3ccc(Cl)s3)CC2)NC(=O)CCSSCCNC(=O)C2CCCN(C2)C1=O` (stereo not drawn) [X D6 V B4], the “% thrombin activity, Original screen” value was determined as 81.5% and the “% thrombin activity, Repeat screen” value worked out at 80.4%.

As for `O=C1NC2(CCN(C(=O)c3ccc(Cl)s3)CC2)C(=O)NCCSSCCC(=O)N2CCCC2C(=O)NC1Cc1c[nH]c2ccccc12` (stereo not drawn) [X B1 w D6] ([Mpa]PW[Api](2Thenoyl(5-Cl))-Cysteamide; disulfide 1-C; configuration not given here), the “% thrombin activity, Original screen” value worked out at 94.1% and the “% thrombin activity, Repeat screen” value is on record as 97.2%.

Turning to `O=C1CCSSCCNC(=O)[C@H](CCCCNC(=O)c2cnccn2)NC(=O)[C@H](Cc2ccc(O)cc2)NC(=O)C2(CC2)CN1` [B6-Y-D1/2], the “percent residual thrombin activity” value is listed as 106.813%.

As for `CCC(C)C1NC(=O)C(CCCNC(=O)c2ccc(Cl)s2)NC(=O)CCSSCCNC(=O)C2CCCN2C1=O` (stereo not drawn) [X D2 I B1] ([Mpa][Orn](2Thenoyl(5-Cl))IP-Cysteamide; disulfide 1-C; configuration not given here), the “% thrombin activity, Original screen” value worked out at 96.9% and the “% thrombin activity, Repeat screen” value is given as 90.4%.

`NC(=O)CC[C@@H]1NC(=O)[C@@H]2CCCN2C(=O)CCSSCCNC(=O)[C@H](CCCNC(=O)Cc2c[nH]c3ccccc23)NC1=O` [B1-Q-D2/12] ([Mpa]PQ[Orn](X3)-Cysteamide; disulfide 1-C): the “percent residual thrombin activity” value amounted to 104.653%.

As for `O=C1CCSSCCNC(=O)[C@H](CCCCNC(=O)c2ccco2)NC(=O)[C@H](Cc2cnc[nH]2)NC(=O)c2ccc(cc2)CN1` [B3-H-D1/16], the “percent residual thrombin activity” value is 107.22%.

On to `O=C(COc1ccccc1)NCCCC[C@@H]1NC(=O)[C@H]2CCCN(C2)C(=O)[C@@H](CO)NC(=O)CCSSCCNC1=O` [s-B4-D1/13], for which the “percent residual thrombin activity” value came out at 112.216%.

Regarding `O=C(NCCCC[C@@H]1NC(=O)[C@@H]2CCCN2C(=O)CCSSCCNC(=O)[C@@H](Cc2ccc(O)cc2)NC1=O)c1c[nH]c(=O)cn1` [B1-D1-y/9] ([Mpa]PK(Pyrazinoyl(5-oxo-4H))[dY]-Cysteamide; disulfide 1-C), the “percent residual thrombin activity” value stood at 107.785%.

For `O=C1CCSSCCNC(=O)[C@H](CNC(=O)c2ccc(Cl)s2)NC(=O)[C@@H](Cc2ccccc2)NC(=O)C2(CC2)CN1` [X B6 f D3], the “% thrombin activity, Original screen” value is 49.0% and the “% thrombin activity, Repeat screen” value was 42.0%.
